These results are taken from ChEMBL document CHEMBL5584339, “Design, Synthesis, and Evaluation of the Antitubercular Activity of 5-Phenyl Substituted-5, 6-dihydropyrido[2, 3-d]pyrimidine-4, 7(3H, 8H)-dione Compounds” (J Med Chem, 2024).

≈ marks a conversion by molar mass, not a printed value. Calls of active or inactive are those of the source. The rule behind the calls is not given here.

Series [1] concerns Mycobacterium tuberculosis. Briefly: Antitubercular activity against Mycobacterium tuberculosis H37Rv incubated for 7 days by alamar blue assay. To be noted: 168 h, time 7 day. The class given is functional. For orientation: Resazurin is reduced to fluorescent resorufin, in cell work by metabolically active cells.
Series [2] can be described thus: Selectivity index, ratio of IC50 for african green monkey Vero cells to IC50 for Mycobacterium tuberculosis H37Rv. Format: toxicity. To be noted: read-out: Ratio IC50.
Series [3] in a line: Cytotoxicity against african green monkey Vero cells incubated for 48 hrs by CCK8 assay. Format: toxicity, cell-based, Chlorocebus sabaeus. For orientation: Tetrazolium assays rely on reduction of a dye to a coloured formazan, in cell work by metabolically active cells.
A short description of series [4]: Cytotoxicity against HK-2 cells incubated for 48 hrs by CCK8 assay. The class given is toxicity, cell-based. To be noted: human.
The subject of series [5] is Mycobacterium tuberculosis. The series is described as follows: Binding affinity to Mycobacterium tuberculosis AccD5 at 10 uM by SPR analysis. On the technique in general: Surface plasmon resonance follows binding to a sensor surface in real time, without labels.

A word on the MIC: it is the lowest concentration that inhibits growth of the organism. The IC50 is the concentration that inhibits the measured activity by half. Molecule `C=CCSc1nc2c(c(=O)[nH]1)C(c1ccc(OC)cc1)CC(=O)N2` (stereo not drawn) had a minimal inhibitory concentration (MIC) in series [1] of 0.5 µg/mL (≈ 1.46 µM). In addition, the selectivity ratio in series [2] came to 82.2. The same molecule registered a concentration for half-maximal inhibition (IC50) at 48 h in series [3] of 41.1 µg/mL (≈ 120 µM).
In the same order, the values of `COc1ccc(C2CC(=O)Nc3nc(SC)[nH]c(=O)c32)cc1` (stereo not drawn) are 9.24 µg/mL (≈ 29.1 µM), 3.32 and 30.7 µg/mL (≈ 96.6 µM).
In series [1], `CCCCCCCOc1ccc(C2CC(=O)Nc3nc(SCCC)[nH]c(=O)c32)cc1` (stereo not drawn) had an MIC above 10 µg/mL. Also, in series [3], the half-maximal inhibitory concentration (IC50) at 48 h is 36.6 µg/mL (≈ 85.1 µM).
As to `CCCSc1nc2c(c(=O)[nH]1)C(c1cc(OC)c(OC)c(OC)c1)CC(=O)N2` (stereo not drawn), the minimum inhibitory concentration (MIC) in series [1] is above 10 µg/mL. In series [3], the IC50 at 48 h is above 100 µg/mL.
Turning to `CCCSc1nc2c(c(=O)[nH]1)[C@H](c1ccc(OC)cc1[N+](=O)[O-])CC(=O)N2`, the half-inhibitory concentration (IC50) at 48 h was 56.2 µg/mL (≈ 144 µM) in series [4] and above 64 µg/mL in series [3]. The molecule also showed an MIC in series [1] of 7.72 µg/mL (≈ 19.8 µM). In addition, the result in series [5] was inactive.
In turn, `CCCCSc1nc2c(c(=O)[nH]1)C(c1ccc(OC)cc1O)CC(=O)N2` (stereo not drawn) returned an MIC in series [1] of 4.65 µg/mL (≈ 12.4 µM). In addition, the selectivity ratio in series [2] turned out to be 8.87. The same molecule had a half-maximal inhibitory concentration (IC50) at 48 h in series [3] of 41.2 µg/mL (≈ 110 µM).
In the same order, the values of `CCCSc1nc2c(c(=O)[nH]1)C(c1ccccc1)CC(=O)N2` (stereo not drawn) are 9.66 µg/mL (≈ 30.6 µM), 3.3 and 31.9 µg/mL (≈ 101 µM).
In series [1], `CCCSc1nc2c(c(=O)n1C)C(c1ccccc1)CC(=O)N2C` (stereo not drawn) yielded an MIC above 10 µg/mL.
Same read-out and setting: next, `CCCS(=O)(=O)c1nc2c(c(=O)[nH]1)[C@H](c1ccc(OC)cc1)CC(=O)N2`: above 32 µg/mL.
Molecule `COc1ccc(C2CC(=O)Nc3nc(SC)[nH]c(=O)c32)cc1O` (stereo not drawn) displayed a minimum inhibitory concentration (MIC) in series [1] above 10 µg/mL. Besides, the IC50 at 48 h in series [3] was above 100 µg/mL.
Regarding `CCCSc1nc2c(c(=O)[nH]1)C(c1ccc(OC)cc1N)CC(=O)N2` (stereo not drawn), the minimum inhibitory concentration (MIC) in series [1] is above 10 µg/mL. In series [3], this molecule displayed an IC50 at 48 h above 100 µg/mL.
On to `CCCSc1nc2c(c(=O)[nH]1)C(c1ccc(OC)c(N)c1)CC(=O)N2` (stereo not drawn), for which, in series [1], the MIC came out at 2 µg/mL (≈ 5.55 µM). For the same molecule, in series [2], the selectivity ratio is above 50. Also, the IC50 at 48 h in series [3] is above 100 µg/mL.
Taken in the same sequence, the figures for `CCCOc1ccc(C2CC(=O)Nc3nc(SCCC)[nH]c(=O)c32)cc1` (stereo not drawn) were 1 µg/mL (≈ 2.68 µM), 12.1 and 12.1 µg/mL (≈ 32.3 µM).
`COc1ccc(C2CC(=O)Nc3nc(SC)[nH]c(=O)c32)c(O)c1` (stereo not drawn) registered an MIC in series [1] above 10 µg/mL. This molecule also displayed an IC50 at 48 h in series [3] above 100 µg/mL.
For `CCCSc1nc2c(c(=O)[nH]1)C(c1ccc(OC)c([N+](=O)[O-])c1)CC(=O)N2` (stereo not drawn), in series [1], the MIC worked out at 4.84 µg/mL (≈ 12.4 µM). Further, the selectivity ratio in series [2] turned out to be 14. Besides, in series [3], it took 67.5 µg/mL (≈ 173 µM) to reach half-maximal inhibition (IC50 at 48 h).
Consider `CCCSc1nc2c(c(=O)[nH]1)C(c1ccc(OC)c(O)c1O)CC(=O)N2` (stereo not drawn), for which the minimum inhibitory concentration (MIC) in series [1] is above 10 µg/mL. The same molecule yielded an IC50 at 48 h in series [3] of 27.5 µg/mL (≈ 72.9 µM).
In the same order, the values of `CCCSc1nc2c(c(=O)n1C)C(c1ccc(OC)cc1)CC(=O)N2C` (stereo not drawn) are above 10 µg/mL and 46.5 µg/mL (≈ 124 µM).
The molecule `CCC[S+]([O-])c1nc2c(c(=O)[nH]1)[C@H](c1ccc(OC)cc1)CC(=O)N2` (stereo partly drawn) displayed an MIC in series [1] above 32 µg/mL.
With `CCCSc1nc2c(c(=O)[nH]1)C(c1ccc(OCC)cc1)CC(=O)N2` (stereo not drawn), the minimal inhibitory concentration (MIC) in series [1] was 0.35 µg/mL (≈ 0.974 µM). Moreover, the selectivity ratio in series [2] stood at 174. The molecule also showed an IC50 at 48 h in series [3] of 60.1 µg/mL (≈ 167 µM).
Taken in the same sequence, the figures for `CCCOc1ccc(C2CC(=O)Nc3nc(SCCC)[nH]c(=O)c32)cc1O` (stereo not drawn) were 4.73 µg/mL (≈ 12.1 µM), 21 and 99.3 µg/mL (≈ 255 µM).
For the molecule `CCCSc1nc2c(c(=O)[nH]1)[C@H](c1ccc(OC)cc1)CC(=O)N2`, the figures for the half-maximal inhibitory concentration (IC50) at 48 h in series [4] and in series [3] were 73.1 µg/mL (≈ 212 µM) and above 64 µg/mL, respectively. In series [1], this molecule displayed an MIC of 7.83 µg/mL (≈ 22.7 µM).
For `CCCSc1nc2c(c(=O)[nH]1)C(c1ccc(OCC(C)C)cc1)CC(=O)N2` (stereo not drawn), in series [1], the MIC is above 10 µg/mL. In series [3], this molecule returned an IC50 at 48 h of 41.5 µg/mL (≈ 107 µM).
On to `C=CCSc1nc2c(c(=O)[nH]1)C(c1ccc(OC)cc1[N+](=O)[O-])CC(=O)N2` (stereo not drawn), for which the MIC in series [1] was 0.5 µg/mL (≈ 1.29 µM). For the same molecule, the selectivity ratio in series [2] was above 200. Also, the concentration for half-maximal inhibition (IC50) at 48 h in series [3] was above 100 µg/mL.
Molecule `CCCCSc1nc2c(c(=O)[nH]1)C(c1ccc(OCCC)cc1)CC(=O)N2` (stereo not drawn) came in with an MIC in series [1] above 10 µg/mL. In series [3], this molecule had a half-maximal inhibitory concentration (IC50) at 48 h of 57 µg/mL (≈ 147 µM).
